This is an account of results in publication PMC12735718, “Novel Adamantane–Sclareol Hybrids Exploit ROS Vulnerability to Overcome Multidrug-Resistance in Glioblastoma Cells” (Molecules, 2025).

SMILES strings stand for the structures.

What is called IC50 is the concentration at which inhibition is half-maximal. Read a high IC50 as a need for much substance.

One test deals with U87 cells. Kind of test: MTT cell viability assay, U87. Particulars: Homo sapiens, U-87 MG, 72 h treatment. It is filed as cell-based. On the procedure: (§1) Cell viability was measured using the colorimetric MTT assay based on the reduction of MTT into formazan dye. Cell lines were seeded into 96-well cell culture plates (4000 cells/well) in appropriate medium. After overnight incubation, cells were treated with increasing concentrations of 1, 2, 3, 4, 5, and 6 (0.5, 1, 2, 4, and 8 µM). After 72 h treatment, MTT solution (4 mg/mL) was added and plates were incubated at 37 °C with 5% CO2 for 3 h. After incubation, formazan crystals were dissolved using 100 µL DMSO, resulting in a purple color. The absorbance was measured at 570 nm with a reference wavelength of 690 nm using an automated microplate reader (MultiskanSky, Thermo Scientific, USA). The IC50 values were determined by non-linear regression analysis in GraphPad Prism 8.0.2. software (GraphPad Software, Boston, MA, USA).
(In general: Tetrazolium assays rely on reduction of a dye to a coloured formazan, in cell work by metabolically active cells.)

The subject of test [1] is TrxR (SH-SY5Y cell lysate). Kind of test: Colorimetric detection of cell lysate TrxR activity (DTNB). It counts as biochemical, human. Particulars: 50 µM, DTNB absorbance at 412 nm over 20 min. The source says:
We further analyzed the potential of adamantane–sclareol hybrids to inhibit TrxR enzyme activity using a colorimetric assay for the detection of TrxR activity in cell lysates. This kinetic assay is based on the ability of TrxR to reduce its substrate 5,5ʹ-dithiobis(2-nitrobenzoic acid) (DTNB) to the yellow product 5-thio-2-nitrobenzoic acid (TNB) in the presence of NADPH. The absorbance of the produced TNB is considered equivalent to the enzymic activity of TrxR. In the kinetic assay, the absorbance of DTNB was measured over 20 min, resulting in a curve showing the dependence of absorbance on time.
TrxR enzyme activity in cell lysate was determined by the reduction of the TrxR substrate DTNB to the yellow product TNB in the presence of NADPH (Acros Organics, Thermo Fisher Scientific, Waltham, MA, USA). Lysate from human neuroblastoma SH-SY5Y cells was used for the TrxR assay. SH-SY5Y cells were grown to 80% confluence, washed twice with PBS, and detached using Hanks-based enzyme-free dissociation solution (Millipore, Billeri-ca, MA, USA). Collected cells were centrifuged at 2000 rpm for 3 min and rinsed in PBS buffer. After additional centrifugation, cells were lysed on ice using Lysis Buffer (50 mM Tris, 150 mM NaCl, 1 mM EDTA, 1% NP40, 0.1% SDS, 0.5% Na-deoxycholate, pH 7.8) containing protease inhibitor mix G (SERVA Electrophoresis GmbH, Heidelberg, Germany) and phosphatase inhibitor cocktail 3 (Sigma-Aldrich, Darmstadt, Germany). The cell lysates were centrifuged at 16,000× g for 15 min at 4 °C. The protein concentrations of the supernatants were determined using a Pierce^TM BCA protein assay kit (Thermo Fisher Scientific, Waltham, MA, USA). The reactions were run in 96-well plates, in a final volume of 100 μL, in 50 mM potassium phosphate buffer (pH 7.0) containing 50 μg of cell lysate proteins, 1 mM EDTA, 50 mM KCl, 0.2 mg/mL BSA, and 0.25 mM NADPH. […] Enzyme kinetics were monitored on an automated microplate reader (MultiskanSky, Thermo Fisher Scientific, Waltham, MA, USA) by measuring the increase in absorbance at 412 nm for 20 min. […]

Test [2] concerns U87-TxR cells. Description: Combination with PTX, MTT assay. It counts as cell-based, human. Particulars: for combination index (CI) with PTX: CalcuSyn, 0.5-2 µM compound with 0.1-0.5 µM PTX, 72 h, CI < 1 synergistic. On the procedure:
as §1
The combined effects of 2 and 5 with PTX were studied in U87-TxR cells by MTT assay as previously described. In simultaneous treatments that lasted 72 h, three concentrations of 2 and 5 (0.5, 1, and 2 µM) were combined with three concentrations of PTX (0.1 μM, 0.2 μM, and 0.5 μM). Drug combination effects were evaluated using the Chou–Talalay method, which calculates the combination index (CI) value for the degree of interaction between the drugs. This method allows quantitative assessment of synergism (CI < 1), additivity (CI close to 1), or antagonism (CI > 1) across a range of dose–effect relationships. Calcusyn® version 1.1 software was used for data analysis (Biosoft, Cambridge UK). Three data points were used for each single drug in each designed experiment. The non-constant ratio combination was chosen to assess the effect of both drugs in combination. The results are presented in a fraction-affected CI graph.

In test [3] the test system is U87-TxR cells. Description: Cell death detection, AV/PI staining, U87-TxR. It is filed as cell-based, human. Particulars: 48 h; for cell death effect in MDR U87-TxR cells vs sensitive U87 cells: 4 µM, AV/PI; for percentage of early apoptotic cells vs untreated: 2 µM and 4 µM, particularly at 4 µM. On the procedure:
To evaluate the extent of cell death upon treatment with adamantane–sclareol hybrids, apoptotic, necrotic, and viable cell populations were assessed using dual staining with AV/PI. U87 and U87-TxR cells were seeded in 6-well plates at a density of 150,000 cells per well and incubated overnight. Subsequently, cells were treated with 2 and 5 (2 µM and 4 µM) for 48 h. At the end of the treatment period, cells were collected (both adherent and floating), washed, and incubated with AV/PI in binding buffer. Samples were analyzed using a CytoFLEX flow cytometer (Beckman Coulter, Indianapolis, IN, USA), with fluorescence signals detected at 525 nm (AV) and 585 nm (PI). At least 10,000 events were recorded per each condition. The percentages of viable (AV^− PI^−), early apoptotic (AV^+ PI^−), late apoptotic (AV^+ PI^+), and necrotic (AV^− PI^+) cells were calculated using CytExpert 2.4.0.28 software (Beckman Coulter, Indianapolis, IN, USA).

For the next test, the system named is A-172 cells. Description: MTT cell viability assay, A-172. It counts as cell-based. Particulars: Homo sapiens, 72 h treatment. On the procedure: as §1

Consider `CC1(C)CCC[C@]2(C)[C@@H](CC[C@@](C)(O)/C=C/c3ccc(CNCCCCCCCCNCC45CC6CC(CC(C6)C4)C5)s3)[C@](C)(O)CC[C@@H]12` [Compound 2], for which the concentration for half-maximal inhibition (IC50) in the test with U87 cells was determined as 2.59 ± 0.068 µM; in the test with A-172 cells, 2.05 ± 0.37 µM. The TrxR enzyme activity entry in test [1] is on record as “do not inhibit TrxR enzyme activity”. For the same compound, the “Relative Reversal” value in the test with U87-TxR cells [2] (0.5 µM of the compound) was found to be 1.75; in the test on U87-TxR cells [2] (1.0 µM of the compound) it was 1.68; with U87-TxR cells [2] (2.0 µM of the compound) it was 3.05. Also, the “combination index (CI) with PTX” value with U87-TxR cells [2] was under 1. The “cell death effect in MDR U87-TxR cells vs sensitive U87 cells” value in the test on U87-TxR cells [3] is given as “significantly better effects in MDR U87-TxR cells”. Moreover, the “percentage of early apoptotic cells vs untreated” value with U87-TxR cells [3] is on record as “significant increase”.
Take `CC1(C)CCC[C@]2(C)[C@@H](CC[C@@](C)(O)/C=C/c3ccc(CNCCCCCCCCNCC45CC6CC(CC(C6)C4)C5)o3)[C@](C)(O)CC[C@@H]12` [Compound 5]: the figures for the concentration for half-maximal inhibition (IC50) in the test with U87 cells and in the test on A-172 cells were 5.13 ± 0.139 µM and 4.74 ± 0.129 µM, respectively. Further, the TrxR enzyme activity result in test [1] is “do not inhibit TrxR enzyme activity”. For the same compound, the “Relative Reversal” value in the test on U87-TxR cells [2] (0.5 µM of the compound) turned out to be 0.86; with U87-TxR cells [2] (1.0 µM of the compound) it was 1.85; in the test on U87-TxR cells [2] (2.0 µM of the compound), 1.76. For the same compound, the “combination index (CI) with PTX” value in the test with U87-TxR cells [2] is listed as under 1. In addition, the “cell death effect in MDR U87-TxR cells vs sensitive U87 cells” value in the test with U87-TxR cells [3] is given as “significantly better effects in MDR U87-TxR cells”. Moreover, in the test with U87-TxR cells [3], the “percentage of early apoptotic cells vs untreated” value is listed as “significant increase”. For the same compound, the “early apoptotic population (AV+ PI−)” value in the test with U87-TxR cells [3] (untreated cells 4.17%, Figure S3) is given as 32.6%.
